Experimental data: patent US5075301A, “Furan derivatives useful for the treatment of gastro-intestinal disorders” (Kyowa Hakko Kogyo, Co., Ltd., priority 1989, dated 1991)

Key:
ileal strips = experiment: Gastrointestinal motility stimulation test (ileal strip, electric transmural stimulation); design: species or system male Hartley guinea pigs; conditions: Cavia porcellus; for activation at 10 µg/mL: read-out: Amplification Degree (Electric Transmural Stimulation), 10^-5 g/ml; for activation at 1 µg/mL: read-out: Amplification Degree (Electric Transmural Stimulation), 10^-6 g/ml
Protocol: From male Hartley guinea pigs weighing 250-400 g, ileal strips, 2-3 cm long, were isolated. The ileal strip was suspended in a Tyrode's solution bath (30 ml) while supplying a mixture gas of 95% O2 -5% CO2 and maintained at 37±1° C. and using an isotonic transducer the longitudinal contractions of the strip were recorded. Supramaximal electric transmural stimulation of 1-millisecond duration was given at 10-second intervals. Each test compound was dissolved or suspended in physiological saline and added into the organ bath. The effect of each test compound on electric transmural stimulation was calculated from the amplitude of contractions (A) before administration and the amplitude of contractions (B) after administration using the following equation. [formula]

male dd mice = experiment: Acute toxicity test (minimum lethal dose, MLD); assay type: in vivo; conditions: p.o., 7 days
Protocol: Using male dd mice weighing 20±1 g in groups of 3, each test compound was orally administered (300 mg/kg, p.o.).

histamine H2 -receptor [1] = experiment: antihistaminic (histamine H2 -receptor blocking) activity; conditions: no method given
gastrointestinal tract = conditions: Scand. J. Gastroenterol., 21 (Suppl. 121), 30 (1986); cited from earlier work
histamine H2 -receptor [2] = conditions: known; cited from earlier work

| Compound | activation at 10 µg/mL (ileal strips) | Acute Toxicity (MLD) (male dd mice) | activation at 1 µg/mL (ileal strips) | antihistaminic activity (histamine H2 -receptor [1]) | activity to stimulate motility of the gastrointestinal tract (gastrointestinal tract) | histamine H2 -receptor blocking activity (histamine H2 -receptor [2]) |
| --- | --- | --- | --- | --- | --- | --- |
| CNC(=C[N+](=O)[O-])NCCNCc1ccc(CN(C)C)o1 [Compound 1, N-[2-[(5-Dimethylaminomethyl-2-furanyl)methylamino]ethyl]-N'-methyl-2-nitroethene-1,1-diamine] | 30% | > 300 mg/kg |  |  |  |  |
| CNC(NCCNCc1ccc(CN(C)C)o1)=C(C#N)C#N [Compound 2, [[2-[(5-Dimethylaminomethyl-2-furanyl)methylamino]ethyl]amino(methylamino)methylene]propanedinitrile] | 80.5% | > 300 mg/kg | 31% |  |  |  |
| CNC(NCCCNCc1ccc(CN(C)C)o1)=C(C#N)C#N [Compound 6, [[3-[(5-Dimethylaminomethyl-2-furanyl)methylamino]propylamino](methylamino)methylene]propanedinitrile] | 34% | > 300 mg/kg |  |  |  |  |
| CNC(NCCNC(=O)c1ccc(CN(C)C)o1)=C(C#N)C#N [Compound 10, 5-(Dimethylaminomethyl)-N-[2-(1-methylamino-2,2-dicyanovinylamino)ethyl]-2-furancarboxamide] | 36.4% | > 300 mg/kg | 15.3% |  |  |  |
| CNC(NCCNCc1ccc(CN(C(C)C)C(C)C)o1)=C(C#N)C#N [Compound 12, [[2-[(5-Diisopropylaminomethyl-2-furanyl)methylamino]ethyl]amino(methylamino)methylene]propanedinitrile] | 55.8% | > 300 mg/kg | 34.3% |  |  |  |
| CNC(NCCNCc1ccc(CN2CCCC2)o1)=C(C#N)C#N [Compound 13, [[2-[(5-Pyrrolidinylmethyl-2-furanyl)methylamino]ethyl](methylamino)methylene]propanedinitrile] | 70.8% | > 300 mg/kg | 34.5% |  |  |  |
| CNC(NCCNCc1ccc(CN2CCCCC2)o1)=C(C#N)C#N [Compound 14, [[2-[(5-Piperidinomethyl-2-furanyl)methylamino]ethyl](methylamino)methylene]propanedinitrile] | 79.3% | > 300 mg/kg | 37.3% |  |  |  |
| CNc1c(NCCNCc2ccc(CN3CCCCC3)o2)c(=O)c1=O [Compound 17, 1-Methylamino-2-[[2-[(5-piperidinomethyl-2-furanyl)methylamino]ethyl]amino]cyclobutene-3,4-dione] | 75% | > 300 mg/kg | 19.5% |  |  |  |
| CN(C)Cc1ccc(CNCCN2CCNC2=C(C#N)C#N)o1 [Compound 22, [1-[2-[(5-Dimethylaminomethyl-2-furanyl)methylamino]ethyl]-2-imidazolidinylidene]propanedinitrile] |  | > 300 mg/kg | 56% |  |  |  |
| CCN(C)Cc1ccc(CNCCN2CCNC2=C(C#N)C#N)o1 [Compound 25, [1-[2-[(5-Ethylmethylaminomethyl-2-furanyl)methylamino]ethyl]-2-imidazolidinylidene]propanedinitrile] |  | > 300 mg/kg | 63.5% |  |  |  |
| N#CC(C#N)=C1NCCN1CCNCc1ccc(CN2CCCC2)o1 [Compound 27, [1-[2-[(5-Pyrrolidinylmethyl-2-furanyl)methylamino]ethyl]-2-imidazolidinylidene]propanedinitrile] |  | > 300 mg/kg | 12% |  |  |  |
| N#CC(C#N)=C1NCCN1CCNCc1ccc(CN2CCCCC2)o1 [Compound 28, [1-[2-[(5-Piperidinomethyl-2-furanyl)methylamino]ethyl]-2-imidazolidinylidene]propanedinitrile] |  | 100 mg/kg |  |  |  |  |
| N#CC(C#N)=C1NCCN1CCNCc1ccc(CN2CCCCCC2)o1 [Compound 29, [1-[2-[(5-Perhydroazepinylmethyl-2-furanyl)methylamino]ethyl]-2-imidazolidinylidene]propanedinitrile] |  | 200 mg/kg | 68% |  |  |  |
| CC1CCN(Cc2ccc(CNCCN3CCNC3=C(C#N)C#N)o2)CC1 [Compound 32, [1-[2-[[5-(4-Methylpiperidinomethyl)-2-furanyl]methylamino]ethyl]-2-imidazolidinylidene]propanedinitrile] |  | > 300 mg/kg | 52% |  |  |  |
| COC1CCCN(Cc2ccc(CNCCN3CCNC3=C(C#N)C#N)o2)C1 (centres unmarked) [Compound 34, [1-[2-[[5-(3-Methoxypiperidinomethyl)-2-furanyl]methylamino]ethyl]-2-imidazolidinylidene]propanedinitrile] | 81.3% | > 300 mg/kg | 23% |  |  |  |
| N#CC(C#N)=C1NCCN1CCNCc1ccc(CN2CCSCC2)o1 [Compound 38] |  | > 300 mg/kg | 34.5% |  |  |  |
| CN(CCN1CCNC1=C(C#N)C#N)Cc1ccc(CN2CCCCC2)o1 [Compound 45, [1-[2-[N-(Methyl)-N-[(5-piperidinomethyl-2-furanyl)methyl]amino]ethyl]-2-imidazolidinylidene]-propanedinitrile] | 72.1% | > 300 mg/kg | 43.8% |  |  |  |
| CCN(CC)CCNC(=O)c1cc(Cl)c(N)cc1OC [Metoclopramide, reference compound] | 33.4% | 200 mg/kg | 18% |  |  |  |
| CNC(=C[N+](=O)[O-])NCCSCc1ccc(CN(C)C)o1 [Ranitidine, reference compound] | 42.2% | > 300 mg/kg | 35% | found | weak | having histamine H2 -receptor blocking activity |
